Results as given in US20220046923A1, “HERBICIDAL CINNOLINIUM COMPOUNDS” (SYNGENTA CROP PROTECTION AG, priority 2018, published 2022).
Where a name gives a salt, the structure may show the parent alone.

Experiments:
Test in all cases: Post-emergence efficacy, glasshouse spray test
Type in all cases: in vivo
Lolium perenne (LOLPE) = settings: evaluated after 13 days; for pest or weed control at 500 g/ha / pest or weed control at 1000 g/ha: Lolium perenne, post-emergence, 312 h, read-out: Control of weed species LOLPE after post-emergence application (100=total damage to plant; 0=no damage to plant); for pest or weed control at 1000 g/ha: application rate 1000 g/Ha
Summary of the method: (§1)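 Plants sown in standard soil were grown 14 days in a glasshouse (24/16 °C day/night, 14 h light, 65% humidity) and then sprayed post-emergence. Compound in acetone/IF50 emulsifier mix was diluted in 0.25% or 1% Empicol ESC70 + 1% ammonium sulphate. Damage was scored after 13 days (0 = none, 100 = total).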

[1] = test system: Ipomoea hederacea (IPOHE); settings: evaluated after 13 days; for pest or weed control at 500 g/ha / pest or weed control at 1000 g/ha: Ipomoea hederacea, post-emergence, 312 h, read-out: Control of weed species IPOHE after post-emergence application (100=total damage to plant; 0=no damage to plant); for pest or weed control at 1000 g/ha: application rate 1000 g/Ha
Summary of the method: as §1

Eleusine indica (ELEIN) = settings: evaluated after 13 days; for pest or weed control at 500 g/ha / pest or weed control at 1000 g/ha: Eleusine indica, post-emergence, 312 h, read-out: Control of weed species ELEIN after post-emergence application (100=total damage to plant; 0=no damage to plant); for pest or weed control at 1000 g/ha: application rate 1000 g/Ha
Summary of the method: as §1

Setaria faberi (SETFA) = settings: evaluated after 13 days; for pest or weed control at 500 g/ha / pest or weed control at 1000 g/ha: Setaria faberi, post-emergence, 312 h, read-out: Control of weed species SETFA after post-emergence application (100=total damage to plant; 0=no damage to plant); for pest or weed control at 1000 g/ha: application rate 1000 g/Ha
Summary of the method: as §1

[2] = test system: Euphorbia heterophylla (EPHHL); settings: evaluated after 13 days; for pest or weed control at 500 g/ha / pest or weed control at 1000 g/ha: Euphorbia heterophylla, post-emergence, 312 h, read-out: Control of weed species EPHHL after post-emergence application (100=total damage to plant; 0=no damage to plant); for pest or weed control at 1000 g/ha: application rate 1000 g/Ha
Summary of the method: as §1

[3] = test system: Chenopodium album (CHEAL); settings: evaluated after 13 days; for pest or weed control at 500 g/ha / pest or weed control at 1000 g/ha: Chenopodium album, post-emergence, 312 h, read-out: Control of weed species CHEAL after post-emergence application (100=total damage to plant; 0=no damage to plant); for pest or weed control at 1000 g/ha: application rate 1000 g/Ha
Summary of the method: as §1

[4] = test system: Amaranthus palmeri (AMAPA); settings: evaluated after 13 days; for pest or weed control at 500 g/ha / pest or weed control at 1000 g/ha: Amaranthus palmeri, post-emergence, 312 h, read-out: Control of weed species AMAPA after post-emergence application (100=total damage to plant; 0=no damage to plant); for pest or weed control at 1000 g/ha: application rate 1000 g/Ha
Summary of the method: as §1

[5] = test system: Digitaria sanguinalis (DIGSA); settings: evaluated after 13 days; for pest or weed control at 500 g/ha / pest or weed control at 1000 g/ha: Digitaria sanguinalis, post-emergence, 312 h, read-out: Control of weed species DIGSA after post-emergence application (100=total damage to plant; 0=no damage to plant); for pest or weed control at 1000 g/ha: application rate 1000 g/Ha
Summary of the method: as §1

[6] = test system: Echinochloa crus-galli (ECHCG); settings: evaluated after 13 days; for pest or weed control at 500 g/ha / pest or weed control at 1000 g/ha: Echinochloa crus-galli, post-emergence, 312 h, read-out: Control of weed species ECHCG after post-emergence application (100=total damage to plant; 0=no damage to plant); for pest or weed control at 1000 g/ha: application rate 1000 g/Ha
Summary of the method: as §1

SMILES	pest or weed control at 1000 g/ha (Lolium perenne (LOLPE)) [%]	pest or weed control at 1000 g/ha [1] [%]	pest or weed control at 1000 g/ha (Eleusine indica (ELEIN)) [%]	pest or weed control at 1000 g/ha (Setaria faberi (SETFA)) [%]	pest or weed control at 1000 g/ha [2] [%]	pest or weed control at 1000 g/ha [3] [%]	pest or weed control at 1000 g/ha [4] [%]	pest or weed control at 1000 g/ha [5] [%]	pest or weed control at 1000 g/ha [6] [%]	further results
O=C(NC(C[n+]1ccc2ccccc2n1)C(=O)O)OCc1ccccc1 (stereo not drawn) [Compound A114]	–	–	–	–	–	–	–	–	–	pest or weed control at 500 g/ha (Lolium perenne (LOLPE); application rate 500 g/Ha): 10%; pest or weed control at 500 g/ha ([1]; application rate 500 g/Ha): 30%; pest or weed control at 500 g/ha (Eleusine indica (ELEIN); application rate 500 g/Ha): 30%; pest or weed control at 500 g/ha (Setaria faberi (SETFA); application rate 500 g/Ha): 20%; pest or weed control at 500 g/ha ([2]; application rate 500 g/Ha): 50%; pest or weed control at 500 g/ha ([3]; application rate 500 g/Ha): 40%; pest or weed control at 500 g/ha ([4]; application rate 500 g/Ha): 50%; pest or weed control at 500 g/ha ([5]; application rate 500 g/Ha): 20%; pest or weed control at 500 g/ha ([6]; application rate 500 g/Ha): 20%
COC(=O)C[n+]1ccc2cccc(C)c2n1 [Compound A58]	0	10	10	0	20	30	0	0	10	–
CC(C)(C[n+]1ccc2ccccc2n1)C(=O)O [Compound A113, 3-cinnolin-2-ium-2-yl-2,2-dimethyl-propanoic Acid 2,2,2-trifluoroacetate]	–	–	–	–	–	–	–	–	–	pest or weed control at 500 g/ha (Lolium perenne (LOLPE); application rate 500 g/Ha): 20%; pest or weed control at 500 g/ha ([1]; application rate 500 g/Ha): 10%; pest or weed control at 500 g/ha (Eleusine indica (ELEIN); application rate 500 g/Ha): 30%; pest or weed control at 500 g/ha (Setaria faberi (SETFA); application rate 500 g/Ha): 20%; pest or weed control at 500 g/ha ([2]; application rate 500 g/Ha): 10%; pest or weed control at 500 g/ha ([3]; application rate 500 g/Ha): 10%; pest or weed control at 500 g/ha ([4]; application rate 500 g/Ha): 10%; pest or weed control at 500 g/ha ([5]; application rate 500 g/Ha): 30%; pest or weed control at 500 g/ha ([6]; application rate 500 g/Ha): 40%
CC#Cc1c[n+](CCOS(=O)(=O)[O-])nc2ccccc12 [Compound A54, 2-(4-prop-1-ynylcinnolin-2-ium-2-yl)ethyl sulfate]	10	10	30	20	30	40	30	30	10	–
Cc1cccc2n[n+](CCS(=O)(=O)[O-])ccc12 [Compound A97]	–	–	–	–	–	–	–	–	–	pest or weed control at 500 g/ha (Lolium perenne (LOLPE); application rate 500 g/Ha): 10%; pest or weed control at 500 g/ha ([1]; application rate 500 g/Ha): 10%; pest or weed control at 500 g/ha (Eleusine indica (ELEIN); application rate 500 g/Ha): 70%; pest or weed control at 500 g/ha (Setaria faberi (SETFA); application rate 500 g/Ha): 60%; pest or weed control at 500 g/ha ([2]; application rate 500 g/Ha): 80%; pest or weed control at 500 g/ha ([3]; application rate 500 g/Ha): 90%; pest or weed control at 500 g/ha ([4]; application rate 500 g/Ha): 100%; pest or weed control at 500 g/ha ([5]; application rate 500 g/Ha): 50%; pest or weed control at 500 g/ha ([6]; application rate 500 g/Ha): 30%
COC(=O)CCC[n+]1ccc2ccccc2n1 [Compound A16, methyl 4-cinnolin-2-ium-2-ylbutanoate 2,2,2-trifluoroacetate]	20	10	60	50	40	70	50	40	50	–
O=C([O-])C[n+]1ccc2ccccc2n1 [Compound A2, 2-cinnolin-2-ium-2-ylacetate]	20	40	100	80	90	80	100	100	100	–
O=S(=O)([O-])CC[n+]1ccc2cc(C(F)(F)F)ccc2n1 [Compound A98]	–	–	–	–	–	–	–	–	–	pest or weed control at 500 g/ha (Lolium perenne (LOLPE); application rate 500 g/Ha): 10%; pest or weed control at 500 g/ha ([1]; application rate 500 g/Ha): 0%; pest or weed control at 500 g/ha (Eleusine indica (ELEIN); application rate 500 g/Ha): 20%; pest or weed control at 500 g/ha (Setaria faberi (SETFA); application rate 500 g/Ha): 0%; pest or weed control at 500 g/ha ([2]; application rate 500 g/Ha): 40%; pest or weed control at 500 g/ha ([3]; application rate 500 g/Ha): 30%; pest or weed control at 500 g/ha ([4]; application rate 500 g/Ha): 0%; pest or weed control at 500 g/ha ([5]; application rate 500 g/Ha): 10%; pest or weed control at 500 g/ha ([6]; application rate 500 g/Ha): 10%
OCCC[n+]1ccc2ccccc2n1 [Compound A121]	10	20	0	30	30	60	30	0	10	–
O=P(O)(O)C[n+]1ccc2ccccc2n1 [Compound A73, cinnolin-2-ium-2-ylmethyl(hydroxy)phosphinate chloride]	10	30	10	0	10	0	10	10	10	–
CONC(=O)C[n+]1cc(C)c2cc(C)cc(C)c2n1 [Compound A5]	0	20	10	10	30	20	30	10	0	–
CCOP(=O)(CC[n+]1ccc2ccccc2n1)OCC.[Br-] [Compound A99]	–	–	–	–	–	–	–	–	–	Control of weed species LOLPE after post-emergence application (100=total damage to plant; 0=no damage to plant) (Lolium perenne (LOLPE); application rate 500 g/Ha): 20; Control of weed species IPOHE after post-emergence application (100=total damage to plant; 0=no damage to plant) ([1]; application rate 500 g/Ha): 10; Control of weed species ELEIN after post-emergence application (100=total damage to plant; 0=no damage to plant) (Eleusine indica (ELEIN); application rate 500 g/Ha): 30; Control of weed species SETFA after post-emergence application (100=total damage to plant; 0=no damage to plant) (Setaria faberi (SETFA); application rate 500 g/Ha): 50; Control of weed species EPHHL after post-emergence application (100=total damage to plant; 0=no damage to plant) ([2]; application rate 500 g/Ha): 40; Control of weed species CHEAL after post-emergence application (100=total damage to plant; 0=no damage to plant) ([3]; application rate 500 g/Ha): 20; Control of weed species AMAPA after post-emergence application (100=total damage to plant; 0=no damage to plant) ([4]; application rate 500 g/Ha): 10; Control of weed species DIGSA after post-emergence application (100=total damage to plant; 0=no damage to plant) ([5]; application rate 500 g/Ha): 50; Control of weed species ECHCG after post-emergence application (100=total damage to plant; 0=no damage to plant) ([6]; application rate 500 g/Ha): 40
CC(CC[n+]1ccc2ccccc2n1)S(=O)(=O)[O-] (stereo not drawn) [Compound A43, 4-cinnolin-2-ium-2-ylbutane-2-sulfonate]	40	80	100	70	100	100	100	80	70	–
Cc1c[n+](CCC(=O)O)nc2ccccc12 [Compound A64]	10	20	50	30	70	70	70	50	40	–
COc1ccc2n[n+](CC(=O)[O-])ccc2c1 [Compound A68]	10	20	20	30	20	50	60	30	50	–
